According to US20070149508A1, “Six membered heteroaromatic inhibitors targeting resistant kinase mutations” (TargeGen, Inc., priority 2005, published 2007):
Counter-ions that a name gives are not always drawn.

Key:
Abl (T315I) = target: T1, Abl (T315I) (Homo sapiens, UniProt P00519, T315I); assay: Abl (T315I) Kinase Assay (KinaseGlo luminescent detection of residual ATP); type: biochemical; conditions: Abl (T315I) IC50 (nM), Abl (T315I) (Upstate, 17 ng/well), Abltide 100 uM, ATP 500 nM, 60 minutes at 37° C.
T1 construct: purchased Upstate
Protocol: The assay was performed similarly to the Abl kinase assay. Abl (T315I) (Upstate, 17 ng/well); Abltide substrate (100 uM) and ATP (500 nM) comprised the reaction mixture. Compound was similarly diluted, and the reaction plate was incubated for 60 minutes at 37° C.

Abl kinase = Abl kinase (Homo sapiens, UniProt P00519); assay: biochemical; conditions: Abl IC50 (nM), Abl kinase (Invitrogen, 20 ng/well), Abltide 100 μM, ATP 500 nM, 37° C. for 60 minutes, top concentration 10 uM

| SMILES | IC50 (Abl (T315I)) [nM] | IC50 (Abl kinase) [nM] |
| --- | --- | --- |
| O=S(=O)(c1ccc(Nc2ncc(/C=C/c3cccc4[nH]ncc34)cn2)cc1)C1CCNCC1 [5-((E)-2-(1H-indazol-4-ylsulfonyl)phenyl)pyrimidin-yl)vinyl)-N-(4-(piperidin-4-2-amine trifluoroacetic acid salt] | 29 | 1.5 |
| O=S(=O)(c1ccc(Nc2ncc(/C=C/c3cccc4[nH]ccc34)cn2)cc1)C1CCNCC1 [5-((E)-2-(1H-indol-4-yl)vinyl)-N-(4-(piperidin-4-2-amine] | 154 | 6.3 |
| Nc1nc2cc(/C=C/c3cnc(Nc4ccc(S(=O)(=O)C5CCNCC5)cc4)nc3)ccc2s1 [5-((E)-2-(2-(4-(piperidin-4-ylsulfonyl)phenylamino)pyrimidin-5-yl)vinyl)benzo[d]thiazol-2-amine Hydrochloride] | 416 | 101 |
| O=S(=O)(c1ccc(Nc2ncc(/C=C/c3cc(C(F)(F)F)cc4[nH]nnc34)cn2)cc1)C1CCNCC1 [5-((E)-2-(6-(trifluoromethyl)-1H-benzo[d][1,2,3]triazol-4-yl)vinyl)-N-(4-(piperidin-4-ylsulfonyl)phenyl)pyrimidin-2-amine] | 70 | 130 |
| O=S(=O)(c1ccc(Nc2ncc(/C=C/c3cc(C(F)(F)F)cc4[nH]cnc34)cn2)cc1)C1CCNCC1 [5-((E)-2-(6-(trifluoromethyl)-1H-benzo[d]imidazol-4-yl)vinyl)-N-(4-(piperidin-4-ylsulfonyl)phenyl)pyrimidin-2-amine.] | 666 | 245 |
| Nc1cccc(/C=C/c2cnc(Nc3ccc(S(=O)(=O)C4CCNCC4)cc3)nc2)n1 [5-((E)-2-(6-aminopyridin-2-yl)vinyl)-N-(4-(piperidin-4-ylsulfonyl)phenyl)pyrimidin-2-amine Hydrochloride] | 1210 | 56 |
| O=S(=O)(c1ccc(Nc2ncc(/C=C/c3cc(F)cc4[nH]nnc34)cn2)cc1)C1CCNCC1 [5-((E)-2-(6-fluoro-1H-benzo[d][1,2,3]triazol-4-yl)vinyl)-N-(4-(piperidin-4-ylsulfonyl)phenyl)pyrimidin-2-amine trifluoroacetate] | 12 | 7.2 |
| O=S(=O)(c1ccc(Nc2ncc(/C=C/c3ccc(Cl)c4[nH]ccc34)cn2)cc1)C1CCNCC1 [5-((E)-2-(7-chloro-1H-indol-4-yl)vinyl)-N-(4-(piperidin-ylsulfonyl)phenyl)pyrimidin-2-amine Hydrochloride] | 156 | 15 |
| O=S(=O)(c1ccc(Nc2ncc(/C=C/c3ccc(F)c4[nH]ccc34)cn2)cc1)C1CCNCC1 [5-((E)-2-(7-fluoro-1H-indol-4-yl)vinyl)-N-(4-(piperidin-ylsulfonyl)phenyl)pyrimidin-2-amine Hydrochloride] | 149 | 8 |
| Cc1ccc(/C=C/c2cnc(Nc3ccc(S(=O)(=O)C4CCNCC4)cc3)nc2)c2cc[nH]c12 [5-((E)-2-(7-methyl-1H-indol-4-yl)vinyl)-N-(4-(piperidin-ylsulfonyl)phenyl)pyrimidin-2-amine Hydrochloride] | 167 | 58 |
| O=S(=O)(c1ccc(Nc2ncc(/C=C/c3cccc(-c4ncc[nH]4)c3)cn2)cc1)C1CCNCC1 [5-((E)-3-(1H-imidazol-2-yl)styryl))-N-(4-(piperidin-4-ylsulfonyl)phenyl)pyrimidin-2-amine] | 2720 | 159 |
| O=S(=O)(c1ccc(Nc2ncc(/C=C/c3ccc(-c4nnn[nH]4)cc3)cn2)cc1)C1CCNCC1 [5-((E)-4-(1H-tetrazol-5-ylsulfonyl)phenyl)pyrimidin-yl)styryl)-N-(4-(piperidin-4-2-amine hydrochloride] | 4180 | 3260 |
| O=S(=O)(c1ccc(Nc2ncc(/C=C/c3ccc(-c4ncc[nH]4)cc3)cn2)cc1)C1CCNCC1 [5-((E)-(4-(1H-imidazol-2-yl)styryl))-N-(4-(piperidin-4-ylsulfonyl)phenyl)pyrimidin-2-amine hydrochloride] | 1290 | 374 |
| O=S(=O)(c1ccc(Nc2ncc(/C=C/c3cccc4[nH]ncc34)cn2)cc1N1CCNCC1)N1CCNCC1 [5-[(E)-2-(1H-indazol-4-yl)vinyl]-N-[3-piperazin-1-yl-4-piperazin-1-ylsulfonyl)phenyl]pyrimidin-2-amine] | 336 | 20 |
| C(=C\c1cccc2[nH]ncc12)/c1cnc(Nc2ccc(OC3CCNCC3)cc2)nc1 [5-[(E)-2-(1H-indazol-4-yl)vinyl]-N-[4-(piperidin-4-yloxy)phenyl]pyrimidin-2-amine trifluoroacetic acid salt] | 169 | 7.9 |
| O=S(=O)(CCCN1CCCC1)c1ccc(Nc2ncc(/C=C/c3cccc4[nH]ncc34)cn2)cc1 [5-[(E)-2-(1H-indazol-4-yl)vinyl]-N-{4-[(3-pyrrolidin-1-ylpropyl)sulfonyl]phenyl}pyrimidin-2-amine] | 124 | 3.9 |

| SMILES | IC50 (Abl (T315I)) [nM] | IC50 (Abl kinase) [nM] |
| --- | --- | --- |
| O=S(=O)(CCCN1CCCC1)c1ccc(Nc2ncc(/C=C/c3cccc4[nH]ccc34)cn2)cc1 [5-[(E)-2-(1H-indol-4-pyrrolidin-1-ylpropyl)sulfonyl]phenyl}pyrimidin-2-amine] | 386 | 13 |
| O=S(=O)(c1ccc(Nc2ncc(/C=C/c3cccc4[nH]ccc34)cn2)cc1N1CCNCC1)N1CCNCC1 [5-[(E)-2-(1H-indol-4-yl)vinyl]-N-[3-piperazin-1-yl-4-(piperazin-1-ylsulfonyl)phenyl]pyrimidin-2-amine trifluoroacetic acid salt] | 885 | 84 |
| C(=C\c1cccc2[nH]ccc12)/c1cnc(Nc2ccc(OC3CCNCC3)cc2)nc1 [5-[(E)-2-(1H-indol-4-yl)vinyl]-N-[4-(piperidin-4-yloxy)phenyl]pyrimidin-2-amine trifluoroacetic acid salt] | 820 | 21 |
| O=S(=O)(c1cccc(Nc2ncc(/C=C/c3cccc4[nH]ccc34)cn2)c1)N1CCNCC1 [5-[(E)-2-(1H-indol-4-yl)vinyl]-N-{3-(piperazin-1-ylsulfonyl)phenyl]pyrimidin-2-amine] | ~10000 | 244 |
| CN1CCN(S(=O)(=O)c2cccc(Nc3ncc(/C=C/c4cccc5[nH]ccc45)cn3)c2)CC1 [5-[(E)-2-(1H-indol-4-yl)vinyl]-N-{3-[(4-methylpiperazin-1-yl)sulfonyl]phenyl}pyrimidin-2-amine] | ~10000 | 784 |
| O=S(=O)(c1ccc(Nc2ncc(/C=C/c3cccc4[nH]ccc34)cn2)cc1)N1CCNCC1 [5-[(E)-2-(1H-indol-4-yl)vinyl]-N-{4-(piperazin-1-ylsulfonyl)phenyl]pyrimidin-2-amine] | 450 | 22 |
| CN1CCN(C(=O)c2ccc(Nc3ncc(/C=C/c4cccc5[nH]ccc45)cn3)cc2)CC1 [5-[(E)-2-(1H-indol-4-yl)vinyl]-N-{4-[(4-methylpiperazin-1-yl)carbonyl]phenyl}pyrimidin-2-amine] | 852 | 41 |
| Nc1nc2ccc(/C=C/c3cnc(Nc4ccc([S+]([O-])CCN5CCOCC5)cc4)nc3)cc2s1 (stereo not shown) [6-(2-{2-[4-(2-Morpholin-4-yl-ethanesulfinyl)-phenylamino]-pyrimidin-5-yl}-vinyl)-benzothiazol-2-ylamine] | 283 | 272 |
| Nc1nc2ccc(/C=C/c3cnc(Nc4ccc(SCCN5CCOCC5)cc4)nc3)cc2s1 [6-(2-{2-[4-(2-Morpholin-4-yl-ethylsulfanyl)-phenylamino]-pyrimidin-5-yl}-vinyl)-benzothiazol-2-ylamine] | 1200 | 630 |
| Nc1nc2ccc(/C=C/c3cnc(Nc4ccc(S(=O)(=O)C5CCCNCC5)cc4)nc3)cc2s1 (stereo not shown) [6-(2-{2-[4-(Azepane-4-sulfonyl)-phenylamino]-pyrimidin-5-yl}-vinyl)-benzothiazol-2-ylamine] | 14 | 27 |
| Nc1nc2ccc(/C=C/c3cnc(Nc4ccc(S(=O)(=O)CC5CCNCC5)cc4)nc3)cc2s1 [6-(2-{2-[4-(Piperidin-4-ylmethanesulfonyl)-phenylamino]-pyrimidin-5-yl}-vinyl)-benzothiazol-2-ylamine] | 76 | 169 |
| COCCN1CCN(S(=O)(=O)c2ccc(Nc3ncc(/C=C/c4ccc5nc(N)sc5c4)cn3)cc2)CC1 [6-[2-(2-{4-[4-(2-Methoxy-ethyl)-piperazine-1-sulfonyl]-phenylamino}-pyrimidin-5-yl)-vinyl]-benzothiazol-2-ylamine] | 380 | 1150 |
| Nc1nc2ccc(/C=C/c3cnc(Nc4ccc(S(=O)(=O)N5CCNCC5)c(F)c4)nc3)cc2s1 [6-[(E)-2-(2-{[3-fluoro-4-ylsulfonyl)phenyl]amino}pyrimidin-5-yl)vinyl]-1,3-benzothiazol-2-amine] | 94 | 100 |
| Nc1nc2ccc(/C=C/c3cnc(Nc4ccc(S(=O)(=O)N5CCNCC5)c(N5CCNCC5)c4)nc3)cc2s1 [6-[(E)-2-(2-{[3-piperazin-1-yl-4-(piperazin-1-ylsulfonyl)phenyl]amino}pyrimidin-5-yl)vinyl]-1,3-benzothiazol-2-amine] | 152 | 318 |
| Nc1nc2ccc(/C=C/c3cnc(Nc4ccc(CCCN5CCCC5)cc4)nc3)cc2s1 [6-[(E)-2-(2-{[4-(3-pyrrolidin-1-ylpropyl)phenyl]amino}pyrimidin-5-yl)vinyl]-1,3-benzothiazol-2-amine] | 9450 | 5150 |
| Nc1nc2ccc(/C=C/c3cnc(Nc4ccc(S(=O)(=O)N5CCNCC5)c(C(F)(F)F)c4)nc3)cc2s1 [6-[(E)-2-(2-{[4-(piperazin-1-ylsulfonyl)-3-(trifluoromethyl)phenyl]amino)pyrimidin-5-yl)vinyl]-1,3-benzothiazol-2-amine] | 2100 | 1020 |
